Measured values reported in PMC11936910, “Population pharmacokinetics of polymyxin B in critically ill patients with carbapenem-resistant organisms infections: insights from steady-state trough and peak plasma concentration” (Frontiers in Pharmacology, 2025).
Read-outs that look alike come from different tables or passages of the source. Bridge positions count the residues as written; N and C are the ends. Square brackets hold non-standard residues; d marks the D form. Peptide text beside a SMILES is read from it. * marks the point of attachment. X1 = CC[C@H](C)CCCCC(=O)*; Dab = NCC[C@H](N)C(=O)O

Columns and labels:
[1] = cited from earlier work
Description: The association between PMB pharmacokinetics and CrCL is still debated.

CRO strains = test: MICs of PMB against CRO strains; format: cell-based, carbapenem-resistant organisms
[2] = Population pharmacokinetic (PopPK) model of PMB, NONMEM, one-compartment; format: in vivo, critically ill patients
Description: The PopPK model was developed using nonlinear mixed-effects modeling software: NONMEM (version 7.5.1, ICON plc, United States), Pirana (version 23.1.2, Certara L.P., United States), and PsN (version 5.3.0, https://uupharmacometrics.github.io/PsN/), with the first-order conditional estimation method including interaction (FOCE-I). The base model was selected based on goodness-of-fit (GOF) diagnostic plots, relative standard error (RSE) of parameters, and the objective function value (OFV). Spearman correlation was used to evaluate the relationships between covariates and individual empirical Bayesian estimates (EBEs) of PK parameters before covariate selection. A decrease in OFV >3.84 (P < 0.05, χ^2, df = 1) for forward addition and an increase >6.63 (P < 0.01, χ^2, df = 1) for backward elimination were the criteria for covariate inclusion. GOF plots were used to assess the model. To assess the stability of the final model and the precision of the PK parameters, a bootstrap method with 1,000 resampling iterations was performed. The final model was then subjected to 1,000 simulations for visual predictive checks (VPC) to evaluate the model’s predictive ability and accuracy. The accuracy and predictive performance of the model were further assessed using normalized prediction distribution errors (NPDE) plots. Statistical validation of the model was conducted using the t-test, Fisher’s test, Shapiro-Wilk test, and the Global test.
The patients were divided into a modeling group and a validation group based on the chronological order of enrollment and in accordance with the inclusion and exclusion criteria. External validation of the final model was performed using the validation group data. The mean prediction error (MPE), mean absolute prediction error (MAPE) (Equations 1, 2), F20 (20% of the absolute value of the prediction error), and F30 were calculated by comparing the predicted values with the observed values. Model performance was considered acceptable if MPE% ≤ ±20%, MAPE% ≤ 30%, F20 ≥ 35%, and F30 ≥ 50% ([Mao et al., 2018]). MPE%=1/N∑i=1Npredi−obsi/obsi×100 (1) MAPE%=1/N∑i=1Npredi−obsi/obsi×100 (2) predi denotes the i-th predicted value, and obsi its corresponding observed value.
A one-compartment model with first-order elimination best fit the population data of PMB in critically ill patients. Inter-individual variability was described using an exponential random effects model, while residual variability was described using both proportional and additive error models.

[3] = Steady-state trough and peak plasma concentrations of PMB (UPLC-MS/MS) and AUCss,24h estimation; format: in vivo, critically ill patients; conditions: for Cmax / AUC(0-t): human, plasma, iv; for Cmax: sample immediately after infusion, UPLC-MS/MS, read-out: Cpeak, ss; for AUC(0-t): two-point method (Ctrough,ss and Cpeak,ss, first-order elimination equation), mean ± SD, SD, read-out: Equation-based AUCss,24h
Procedure: A single-center prospective study was conducted in the intensive care unit (ICU) of the First Affiliated Hospital of Army Medical University from August 2021 to July 2024. Inclusion criteria: (1) patients aged ≥18 years; (2) patients receiving intravenous PMB for CRO infections confirmed by pathogen testing; (3) patients receiving at least four consecutive doses of intravenous PMB, or a loading dose followed by at least three consecutive doses. Exclusion criteria: (1) patients with missing clinical data; (2) patients hospitalized for fewer than 7 days; (3) patients receiving any form of renal replacement therapy during PMB treatment; (4) pregnant women. The research protocol was approved by the Ethics Committee of our hospital (No. (A) KY2021064).
After at least 48 h of treatment, two blood samples were collected: one immediately before the infusion and the other immediately after. The exact times of blood sampling and infusion were recorded for each patient. Plasma was separated by low-temperature, low-speed centrifugation and stored at −70°C until analysis.
PMB concentrations were analyzed using a validated ultra-performance liquid chromatography-tandem mass spectrometry (UPLC-MS/MS) method. Briefly, using polymyxin E2 as the internal standard, the assay was linear over 0.2–20.0 mg·L^-1 and 0.05–5 mg·L^-1 (r > 0.995) for PMB1 and PMB2 respectively. […] PMB concentration was calculated as follows: total concentration of PMB = [PMB1 concentration/PMB1 molecular + PMB2 concentration/PMB2 molecular]*total PMB molecular ([Liu et al., 2023]).
Data analysis was performed SPSS (version 26.0, IBM, United States) and GraphPad Prism (version 8.3.0, CA, United States). Variables with a normal distribution were expressed as mean ± standard deviation (SD), while non-normally distributed variables were reported as median (interquartile range, IQR). Categorical data were presented as percentages (%). Comparisons between two groups were conducted using the Mann-Whitney U test for non-normally distributed data and the independent t-test for normally distributed data. The estimation of AUCss,24h used the two-point method was presented in Equations 3–5 ([Liu et al., 2023]), while the estimation of AUCss,24h based on the PopPK model was obtained by dividing the total 24-hour drug dose by the individual clearance. Bland-Altman analysis was performed to evaluate the consistency of AUCss,24h estimates obtained by the two methods. AUCss,24h values were categorized as “within the therapeutic window” (50–100 mg·h·L^-1), and McNemar’s test and Kappa test were applied to assess the consistency of AUCss,24h classifications. ke=lnCpeak,ss−lnCtrough,ss/τ−Infusion (3) Csoi′ =Cpeak,ss/e^−ke⋅Infusion (4) AUCss,24h=Csoi^′−Ctrough,ss/ke×n (5) Infusion time; τ: dosing interval; Csoi' is the exploratory concentration at the start of dosing based on the one-compartment linear elimination pharmacokinetic assumption; ke: elimination rate constant; n is the number of doses within 24 h.

[4] = cited from earlier work; remark: listed apart in the source
Description: In contrast, the lower CL observed in previous studies by Li et al. (1.18 L·h^-1) and Yu et al. (1.59 L·h^-1) may reflect differences in renal function and patient characteristics. Our study reported a value of 18 L, which ...

[5] = bootstrap median, 1,000 resampling iterations
[6] = CRO-infected patients, covariate TBW, ref Manchandani et al., 2018
[7] = CRO-infected patients, ref Kubin et al., 2018
[8] = Critically ill patients, covariate CrCL, ref Yu et al., 2020
[9] = Cystic fibrosis patients, covariate TBW, ref Crass et al., 2021
[10] = Kidney transplant patients, covariate CrCL, ref Li et al., 2021

CC[C@H](C)CCCCC(=O)N[C@@H](CCN)C(=O)N[C@H](C(=O)N[C@@H](CCN)C(=O)N[C@H]1CCNC(=O)[C@H]([C@@H](C)O)NC(=O)[C@H](CCN)NC(=O)[C@H](CCN)NC(=O)[C@H](CC(C)C)NC(=O)[C@@H](Cc2ccccc2)NC(=O)[C@H](CCN)NC1=O)[C@@H](C)O [PMB, polymyxin B] (X1-[Dab]T[Dab][Dab][Dab][dF]L[Dab][Dab]T; lactam 4-C)
Urinary recovery ([1]; 17 patients, ref Sandri et al., 2013b): 0.98% to 17.40
Urinary recovery rate ([1]; four patients, ref Yu et al., 2020): 23.56%
Share with MIC of PMB 16 mg·L^-1 (CRO strains; modeling group, 3/80): 3.75%
Share with MIC of PMB 2 mg L^-1 (CRO strains; modeling group, 8/80): 10%
Share with MIC of PMB 1 mg·L^-1 (CRO strains; modeling group, 11/80): 13.75%
Share with MIC of PMB 2 mg·L^-1 (CRO strains; validation group, 2/15): 13.33%
Share with MIC of PMB 1 mg·L^-1 (CRO strains; validation group, 4/15): 26.67%
Share with MIC of PMB ≤0.5 mg·L^-1 (CRO strains; validation group, 9/15): 60%
CL [2, 5]: 2.02 L/h
V [2, 5]: 17.98 L
V ([2]; final model estimate, modeling group n = 80): 18 L
CL ([2]; final model estimate, modeling group n = 80, 184 samples): 2.03 L/h
AUCss,24h within the range of 50–100, share of values ([3]; estimated by the PPK model, 55/106 values (modeling and validation group)): 51.89%
AUCss,24h within the range of 50–100, share of values ([3]; estimated using the two-point method, 49/106 values): 46.23%
Cmax ([3]; modeling set (n = 80), median (IQR)): 5730 ng/mL
AUC(0-t) ([3]; modeling set): 102000 ± 57900 ng·h/mL
Cmax ([3]; validation set (n = 15), median (IQR)): 4340 ng/mL
AUC(0-t) ([3]; validation set): 90500 ± 43400 ng·h/mL
Model-based AUCss,24h ([3]; modeling set, total 24-hour dose divided by individual clearance from PopPK model, median (IQR)): 74.07 (55.81–94.07) mg·h/L
CL [4, 6]: 2.50 L/h
Vd [4, 6]: 34.30 L
CL [4, 7]: 2.37 L/h
Vd [4, 7]: 34.40 L
CL [4, 8]: 1.59 L/h
Vd [4, 8]: 20.50 L
CL [4, 9]: 2.09 L/h
Vd [4, 9]: 12.70 L
CL [4, 10]: 1.18 L/h
Vd [4, 10]: 12.90 L
